Data: patent US10300107B2, “Compositions and methods for CaMKII inhibitors and uses thereof” (THE REGENTS OF THE UNIVERSITY OF COLORADO, priority 2007, dated 2019)
“Also recorded” adds a separate entry of the source. Where no end group is shown, it is not given here.

Experiments:
CaMKII [1] = target: T1, CaMKII (Homo sapiens, UniProt Q9UQM7); experiment: CaMKII self-association in vitro; assay type: biochemical
T1 construct: made in house; host or cells: baculovirus/Sf9 cells
Protocol: (§1) Stimulated CaMKII activity was assessed using purified CaMKII, [γ^32P]ATP, and the CaMKII substrate, syntide2. Reaction was initiated by addition of calcium and calmodulin. To measure autonomous activity, CaMKII was pre-autophosphorylated by incubation with calcium and calmodulin, which was then chelated by addition of EDTA prior to adding the kinase to syntide2 and [γ^32P]ATP. […] To measure self-association, purified CaMKII was incubated for five minutes with 1mM ADP, calcium and calmodulin, and the appropriate inhibitor. The reaction mixture was then centrifuged to pellet the self-associated kinase. The supernatant (S) was removed and saved and the pellet (P) was resuspended. Both were then resolved by SDS-PAGE and western-blotted for CaMKII. Self-associated kinase is found in the pellet.

Langerhans' islets = experiment: Glucose-induced insulin secretion from isolated Langerhans' islets; assay type: cell-based, rat; details: 11 mM glucose; EGTA 0.5 mM, KN93 10 μM, antCN27 5 μM, tatCN21 5 μM
Protocol: Insulin secretion. Langerhans' islets acutely isolated from adult male Wistar rats (Harlan) were obtained. […] Inhibitors or EGTA were added 30 min before stimulation. Insulin secreted into the medium during 90 min stimulation was measured using an ELISA kit (CrystalChem).

[2] = system: hippocampal and cortical cultures; experiment: Glutamate induced neuronal cell death measured by LDH release; assay type: cell-based, rat
Protocol: In another example, neuronal cell death is measured by LDH release. In this exemplary method, glutamate was used to induce neuronal cell death, A portion of CaMKIIN was fused to a cell penetrating molecule to generate tatCN21a construct.

CaMKII [3] = assay type: biochemical; details: substrate syntide2
Protocol: CaMKII activity assays. Standard CaMKII assays were done for 1 min at 30° C. previously described, with 20 nM CaMKII (subunit, not holoenzyme concentration), 50 mM PIPES pH 7.2, 0.1 mg/ml BSA, 10 mM MgCl2, 100 μM [γ-^32P] ATP (˜1 Ci/mmol), 1 mM CaCl2, 1-2 μM CaM, and 30-60 μM AC2 peptide (or syntide2). The reactions were spotted onto Whatman P81 phosphocellulose paper rectangles (˜2×2.5 cm). To remove free radioactivity, the paper rectangles were rinsed and washed for 30 min under agitation in 0.5% phosphoric acid or water. […] Radioactivity of the bound peptides was quantified in a Beckman 6000TA scintillation counter by the Cherenkov method. Any changes of the standard protocol were done as indicated. For assays of the GFP-CaMKIIα mutants, kinase amounts were normalized by GFP fluorescence in the extract, and total protein was adjusted with Cos-7 extracts.

CaMKII [4] = target: T1, CaMKII; experiment: CaMKII auto- and protein-phosphorylation (MAP2, T286, T305; immuno-blot); assay type: biochemical; details: KN93 10 μM
Protocol: CaMKII auto- and protein-phosphorylation. 10 nM MAP2 (˜140 nM phosphorylation sites) was used instead of substrate peptide, and reaction times were 5 min, unless indicated otherwise. CaMKII concentration was 100 nM subunits (=8.3 nM holoenzymes). Auto- and MAP2-phosphorylation were assessed by Immuno-blot analysis previously derived (Bayer et al., 2002, incorporated herein by reference) with phospho-T286- or -T305-specific antibodies (1:500; PhosphoSolutions) and an anti-phospho-Thr antibody (1:500; Zymed), respectively. Total CaMKIIα was detected with CBα2 antibody (1:2000; GIBCO). Protein were separated on 10% poly-acrylamid SDS Gels, and electro-blotted onto “Protran” 0.2 μm pore nitrocelluse filters (e.g. Schleicher & Schull) or onto PVDF filters (e.g. Perkin Elmer). Alternatively, for quantitative analyses, a vacuum-driven slot-blot manifold (e.g. Schleicher & Schull) was used for transfer onto PVDF membranes. PVDF membranes were air-dried for 15 min, then wetted in Methanol. Blots were blocked in 5% milk in TBS-T (Tris-buffered saline pH 7.6 with 0.1% Tween-20). Antibodies were incubated for 45-60 min at room temperature in 2.5% milk in TBS-T; for the anti-phospho-T305 antibody, 2.5% BSA was used instead. After secondary antibody incubation (anti-mouse or anti-rabbit horseradish peroxidase conjugate; Amersham; 1:4000), detection was done using the “Western Lightning” system (Perkin Elmer) and exposure to “Hyperfilm” (Amersham). For quantitative analysis, chemoluminescence was captured using a ChemiImager 4400 imaging system (Alpha Innotek) instead of film. Only non-saturated images were analyzed, using AlphaEase software.

CaMKII [5] = target: T1, CaMKII; experiment: Autonomous CaMKII activity (pre-autophosphorylated CaMKII); assay type: biochemical
Protocol: as §1

[6] = target: T2, CaMKII binding to GST-NR2B-c (Homo sapiens, UniProt Q9UQM7); experiment: Ca2+/CaM-induced CaMKII binding to immobilized GST-NR2B-c; details: Western blot of eluted CaMKII
T2 construct: made in house; host or cells: CaMKII: baculovirus/Sf9; GST-NR2B-c and CaM: bacteria
Protocol: CaMKII binding to NR2B-c was assessed as previously described. Briefly, GST-NR2B-c was immobilized on anti-GST coated microtiter plates, then overlaid with 100 nM CaMKII in presence of Ca^2+/CaM and 1 or 5 μM of various CN peptides. After extensive wash, protein was eluted from the plates by boiling in SDS-loading buffer. Eluted CaMKII was detected by Western-blot as described above.

protein kinase C (PKC) = experiment: Phosphorylation of CN19 peptides by PKC in vitro; assay type: biochemical
Source text: CN19 phosphorylation at S12 by protein kinase C reduces potency of CaMKII inhibition. In another exemplary method, protein kinase C (PKC) activity was examined with respect to CN19 as a substrate or the S12 mutant. […] The CN19 region most sensitive to Ala substitutions (surrounding R11) contains a potential PKC phosphorylation site (S12).
FIGS. 22A and 22B represent CN19 phosphorylation at S12 by PKC reduces potency of CaMKII inhibition. A, PKC phosphorylated CN19 but not its S12A mutant in vitro, as measured by phosphate incorporation. The phosphorylation rate of CN19 was >50% compared to a MARCKS peptide substrate of PKC. […] S12 was sensitive also to various other mutations (see Table 1 and data not shown). Error bars indicate s.e.m. in all panels.

CaMKI = CaMKI (Homo sapiens, UniProt Q14012); experiment: CaMKI activity / inhibition; assay type: biochemical
Source text: For curve fit, the Hill coefficient was set as 1.

CaMKI, sequence (Q14012 whole entry, species assumed): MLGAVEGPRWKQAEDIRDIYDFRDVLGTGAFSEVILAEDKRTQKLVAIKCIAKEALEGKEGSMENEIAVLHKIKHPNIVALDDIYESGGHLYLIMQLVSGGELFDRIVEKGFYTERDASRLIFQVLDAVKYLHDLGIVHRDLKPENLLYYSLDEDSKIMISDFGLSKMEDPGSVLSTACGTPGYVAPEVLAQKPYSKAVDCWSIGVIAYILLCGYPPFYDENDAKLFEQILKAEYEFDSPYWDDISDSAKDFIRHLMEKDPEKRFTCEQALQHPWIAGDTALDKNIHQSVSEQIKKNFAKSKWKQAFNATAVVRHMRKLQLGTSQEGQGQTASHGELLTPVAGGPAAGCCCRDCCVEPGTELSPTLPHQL

Compound	CaMKII self-association in vitro (CaMKII [1])	glucose-induced insulin secretion (Langerhans' islets)	glutamate induced neuronal cell death ([2]; added 1 h after the insult)	glutamate induced neuronal cell death ([2]; present during the insult)	calcium and calmodulin stimulated CaMKII activity (CaMKII [3])	CaMKII T305 auto-phosphorylation (CaMKII [4]; CN21 5 μM)	CaMKII T286 auto-phosphorylation (CaMKII [4]; CN peptides 1-5 μM)	autonomous CaMKII activity (CaMKII [5])	CaMKII binding to immobilized GST-NR2B-c / NR2B [6]	phosphorylated by PKC (protein kinase C (PKC))	phosphorylation rate by PKC compared to MARCKS peptide substrate (protein kinase C (PKC)) [%]	IC50 (CaMKI) [µM]	effect on CaMKI activity (CaMKI)
COc1ccc(S(=O)(=O)N(CCO)c2ccccc2CN(C)C/C=C/c2ccc(Cl)cc2)cc1 [KN93, reference compound]	inhibited	inhibited	not when added after the insult; also recorded: only when applied during but not after glutamate insult	protective only when present during the insult; also recorded: reduce by half	inhibit calcium and calmodulin stimulated CaMKII activity	blocked T305	essentially completely blocked	only tatCN21 inhibits autonomy	inhibited binding				
KRPPKLGQIGRSKRVVIED [CN19]										phosphorylated by PKC	> 50	~36	no significant effect
